The values below are quoted from earlier work in US8148574B2, “Method for producing 5-aminolevulinic acid hydrochloride” (Cosmo Oil Co., Ltd., priority 2005, dated 2012).

For this data set the following is noted: in water, at room temperature; depends on pH, temperature and coexisting solute.

Broadly, the solubility is the concentration that dissolves in the medium under given conditions. Regarding `Cl.NCC(=O)CCC(=O)O` [5-aminolevulinic acid hydrochloride], the solubility is at least 3000 mM.
